{
  "source": "patent EP0603160A2",
  "about": "“Compositions for in-situ active compound assembly” (SCRIPPS CLINIC AND RESEARCH FOUNDATION, priority 1986, dated 1988)",
  "key": {"human erythrocytes": {"test_system": "human erythrocytes", "experiment": "Erythrocyte lysis (light scattering, hemoglobin release, cell counts)", "type": "cell-based", "procedure": "The putative product shown in Reaction Scheme 1 is evidently cytotoxic, since a suspension of human erythrocytes in a solution containing both CHD and DAPG in phosphate buffered saline is 95% lysed or aggregated within 1-14 hours under physiological conditions (the precise time depending on the concentrations) whereas erythrocytes are stable for at least 24 hours in plain PBS, and also in solutions containing either DAPG or CHD alone. In addition, when erythrocytes are incubated with mixtures of CHD and DAPG, a substantial induction period is observed during which no lysis or aggregation occurs, due to the time lag in formation of the cytotoxic material. Whether lysis or aggregation results depends on relative concentration; excess CHD results in lysis, equimolar concentrations in aggregation. The cytotoxicity may be due to the formation of the polycation, analogous to the known antitumor activity of poly-(L-lysine); Arnold, L. J. Proc. Natl Acad Sci (supra).\nFor erythrocytes blood was collected and stored with KEDTA at 4°C and erythrocytes prepared within 48 hours by centrifuging three times in phosphate-buffered saline (PBS, pH 7.4). Suspensions containing 3 x 10⁷ cells/ml were prepared in PBS containing 1% EtOH, but no […] cations, and incubated at 37°C with the compounds or mixtures to be tested.\nOn the other hand, while a mixture of 28 µM AOG and 28 µM decanal (reagent grade, Aldrich Chemical Co.) results in less than 10% lysis within the same 20 minute time frame, as the time of incubation increases, lysis increases also, as indicated by hemoglobin release measured by (1) light absorption of the supernatant at 400 nm. (2) decrease of light scattering by the cells at 700 nm, and (3) direct cell counts using a microscope. […] Suspensions of 3.5 x 10⁷ cells/ml prepared as above in PBS (1% EtOH, no divalent cations, pH 7.4) were incubated at 37°C, and cell lysis was followed by observing the decrease in absorbance at 700 nm. For 0% lysis, A₇₀₀ is 1.0; 0.2 for 100% lysis).\nThe curves were calculated using a nonlinear least squares fitting algorithm (Arc, H, et al, Statistical Methods (1970) Harper & Row, pp. 100-111) and based on a modified Hill equation (Cantor, C.R. et al, supra) wherein percent hemolysis is calculated as 100% divided by (1+(K/C))^α [formula] . In this equation, K is the median effect concentration, C is the concentration of DIOG (or of decanal and AOG), and α is the Hill constant."}, "Ox blood erythrocytes": {"test_system": "Ox blood erythrocytes", "experiment": "Erythrocyte killing with or without 1% serum, light scattering", "type": "cell-based", "details": "for mortality at 1.4 µM / mortality at 2 µM / mortality at 2.8 µM / mortality at 4 µM / mortality at 5.6 µM / mortality at 8 µM / mortality at 11.2 µM / mortality at 16 µM / mortality at 22.4 µM / mortality at 32 µM / mortality at 1 µM: Bos taurus, Erythrocyte, 1 h; for mortality at 1.4 µM: DIOG 1.4 µM; for mortality at 2.8 µM: DIOG 2.8 µM; for mortality at 4 µM: DIOG 4 µM; for mortality at 5.6 µM: DIOG 5.6 µM; for mortality at 11.2 µM: DIOG 11.2 µM; for mortality at 22.4 µM: DIOG 22.4 µM; for mortality at 32 µM: DIOG 32 µM; for mortality at 1 µM: DIOG 1 µM", "procedure": "Ox blood erythrocytes were incubated for one hour in PBS at pH 6.6 in the presence or absence of 1% serum at 37°C. […] However, at 4-16 µM DIOG, the percentage of cells killed increased from 4.3 to 60.9. On the other hand, in the absence of serum, 7.2.% cells were killed even without the addition of DIOG, and a steady increase in killing occurred as the DIOG concentration increased, reaching 100% of cells killed at 8 µM.\nThe AOG concentration was maintained at a high level (448 µM) and the decanal concentration varied from 0-16 µM corresponding the previous DIOG concentration range. In this protocol, similar results were obtained for cells incubated in the absence of serum, but in the presence of 1% serum the curve was slightly displaced so that the cells appeared more protected as shown in Table 4."}, "[1]": {"details": "pH 6.6, similar experiment (Table 3), read-out: % Cells Killed (0% Serum)"}, "[2]": {"details": "pH 6.6, similar experiment (Table 3), read-out: % Cells Killed (1% Serum)"}, "[3]": {"details": "one hour, PBS pH 6.6, 37°C (second Table 2), read-out: % cells killed (0% serum)"}, "[4]": {"details": "one hour, PBS pH 6.6, 37°C (second Table 2), read-out: % cells killed (1% serum)"}},
  "note": "Read-outs that look alike come from different tables or passages of the source.",
  "data": [
    {"smiles": "CCCCCCCCCC=NNC(=N)NCCCCCCCC", "note": "[DIOG, N-1-decylidenimino-N'-octylguanidine]", "values": [
      {"measurement": "lysis", "setting": "human erythrocytes; 14 µM DIOG previously prepared, in 20 minutes, 37°C", "value": "complete lysis"},
      {"measurement": "EC50", "setting": "human erythrocytes; Erythrocyte, hemoglobin release from human erythrocytes, absorption at 400 nm, modified Hill equation fit, Figure 4, read-out: median effect concentration", "value": 6.2, "unit": "µM"},
      {"measurement": "mortality at 1.4 µM", "setting": "Ox blood erythrocytes; [1]", "value": 1.3, "unit": "%"},
      {"measurement": "mortality at 1.4 µM", "setting": "Ox blood erythrocytes; [2]", "value": 0, "unit": "%"},
      {"measurement": "mortality at 2 µM", "setting": "Ox blood erythrocytes; pH 6.6, DIOG 2 µM, similar experiment (Table 3), read-out: % Cells Killed (0% Serum)", "value": 17.9, "unit": "%"},
      {"measurement": "mortality at 2 µM", "setting": "Ox blood erythrocytes; pH 6.6, DIOG 2 µM, similar experiment (Table 3), read-out: % Cells Killed (1% Serum)", "value": 5.1, "unit": "%"},
      {"measurement": "mortality at 2.8 µM", "setting": "Ox blood erythrocytes; [1]", "value": 17.9, "unit": "%"},
      {"measurement": "mortality at 2.8 µM", "setting": "Ox blood erythrocytes; [2]", "value": 9, "unit": "%"},
      {"measurement": "mortality at 4 µM", "setting": "Ox blood erythrocytes; [1]", "value": 48.7, "unit": "%"},
      {"measurement": "mortality at 4 µM", "setting": "Ox blood erythrocytes; [2]", "value": 11.5, "unit": "%"},
      {"measurement": "mortality at 5.6 µM", "setting": "Ox blood erythrocytes; [1]", "value": 91, "unit": "%"},
      {"measurement": "mortality at 5.6 µM", "setting": "Ox blood erythrocytes; [2]", "value": 16.7, "unit": "%"},
      {"measurement": "mortality at 8 µM", "setting": "Ox blood erythrocytes; pH 6.6, DIOG 8 µM, similar experiment (Table 3), read-out: % Cells Killed (0% Serum)", "value": 100, "unit": "%"},
      {"measurement": "mortality at 8 µM", "setting": "Ox blood erythrocytes; pH 6.6, DIOG 8 µM, similar experiment (Table 3), read-out: % Cells Killed (1% Serum)", "value": 35.9, "unit": "%"},
      {"measurement": "mortality at 11.2 µM", "setting": "Ox blood erythrocytes; [1]", "value": 100, "unit": "%"},
      {"measurement": "mortality at 11.2 µM", "setting": "Ox blood erythrocytes; [2]", "value": 37.2, "unit": "%"},
      {"measurement": "mortality at 16 µM", "setting": "Ox blood erythrocytes; pH 6.6, DIOG 16 µM, similar experiment (Table 3), read-out: % Cells Killed (0% Serum)", "value": 100, "unit": "%"},
      {"measurement": "mortality at 16 µM", "setting": "Ox blood erythrocytes; pH 6.6, DIOG 16 µM, similar experiment (Table 3), read-out: % Cells Killed (1% Serum)", "value": 51.3, "unit": "%"},
      {"measurement": "mortality at 22.4 µM", "setting": "Ox blood erythrocytes; [1]", "value": 100, "unit": "%"},
      {"measurement": "mortality at 22.4 µM", "setting": "Ox blood erythrocytes; [2]", "value": 100, "unit": "%"},
      {"measurement": "mortality at 32 µM", "setting": "Ox blood erythrocytes; [1]", "value": 100, "unit": "%"},
      {"measurement": "mortality at 32 µM", "setting": "Ox blood erythrocytes; [2]", "value": 98.7, "unit": "%"},
      {"measurement": "mortality at 1 µM", "setting": "Ox blood erythrocytes; [3]", "value": 10.1, "unit": "%"},
      {"measurement": "mortality at 1 µM", "setting": "Ox blood erythrocytes; [4]", "value": 0, "unit": "%"},
      {"measurement": "mortality at 2 µM", "setting": "Ox blood erythrocytes; DIOG 2 µM, one hour, PBS pH 6.6, 37°C (second Table 2), read-out: % cells killed (0% serum)", "value": 29, "unit": "%"},
      {"measurement": "mortality at 2 µM", "setting": "Ox blood erythrocytes; DIOG 2 µM, one hour, PBS pH 6.6, 37°C (second Table 2), read-out: % cells killed (1% serum)", "value": 0, "unit": "%"},
      {"measurement": "mortality at 4 µM", "setting": "Ox blood erythrocytes; [3]", "value": 47.8, "unit": "%"},
      {"measurement": "mortality at 4 µM", "setting": "Ox blood erythrocytes; [4]", "value": 4.3, "unit": "%"},
      {"measurement": "mortality at 8 µM", "setting": "Ox blood erythrocytes; DIOG 8 µM, one hour, PBS pH 6.6, 37°C (second Table 2), read-out: % cells killed (0% serum)", "value": 100, "unit": "%"},
      {"measurement": "mortality at 8 µM", "setting": "Ox blood erythrocytes; DIOG 8 µM, one hour, PBS pH 6.6, 37°C (second Table 2), read-out: % cells killed (1% serum)", "value": 29, "unit": "%"},
      {"measurement": "mortality at 16 µM", "setting": "Ox blood erythrocytes; DIOG 16µM, one hour, PBS pH 6.6, 37°C (second Table 2), read-out: % cells killed (0% serum)", "value": 100, "unit": "%"},
      {"measurement": "mortality at 16 µM", "setting": "Ox blood erythrocytes; DIOG 16µM, one hour, PBS pH 6.6, 37°C (second Table 2), read-out: % cells killed (1% serum)", "value": 60.9, "unit": "%"},
      {"measurement": "% cells killed (1% serum)", "setting": "Ox blood erythrocytes; DIOG 2 µM, one hour, PBS pH 6.6, 37°C (second Table 2)", "value": "no cell killing"},
      {"measurement": "% cells killed (0% serum)", "setting": "Ox blood erythrocytes; DIOG 8 µM, one hour, PBS pH 6.6, 37°C (second Table 2), 60 min", "value": 100, "unit": "%"}
    ]}
  ]
}
